Laboratory results: patent US20090215713A1, “Use of atp for the manufacture of a medicament for the prevention and treatment of oxidative stress and related conditions” (priority 2004, published 2009)
Entries after “also recorded” stand apart in the source; their conditions may differ.

Columns and labels:
[1] = Randomized clinical trial of ATP in advanced non-small-cell lung cancer (prior art); type: in vivo, human; settings: unpublished data 2005
[2] = ATP infusions in a patient with rheumatoid arthritis; type: in vivo, human
Method: (§1) Patients with different diseases received infusions of 10-75 μg/kg·min over 8-24 h, at intervals of 1-4 weeks in different randomized clinical trials. In all cases, the first. infusion was given under clinical supervision, subsequent infusions were given in the setting of private homes. Preliminary results in small numbers of patients with persistent rheumatoid arthritis, chronic fatigue syndrome, and cancer in the pre-terminal stage, and lung cancer during curative radiotherapy are given below.
[…] […] DAS score had decreased from 5.80 to 3.09 and CRP had decreased from 43 to 6 mg/L.; all other blood values were normal. MD's conclusion: marked decease of disease activity.

[3] = ATP infusions in pre-terminal cancer patients; type: in vivo, human
Method: as §1
This study was performed in patients of different tumour types with a life expectation of between 8 and 12 weeks. Patients received a maximum of 8 ATP infusions (8 h) at an infusion rate of max. 50 μg/kg·min. […] These subjective improvements were supported by objective outcome assessment using validated questionnaires for self-reliance (Groningen Activity Restriction Scale, GARS), fatigue (Short Fatigue Questionnaire, Smets et al.), and appetite (visual analogue scale, VAS). Below, some of the major effects in these five patients are summarized. Patient 1 (non-small-cell lung cancer): Despite a very low ATP dose (=20-30 μg/kg·min), this patient spontaneously reported that they felt more energetic. Before the study, the patient was not able to independently dress, undress, get in/out of bed, to get out of a chair, or to wash their hands, face or body. After 8 weeks of ATP, the patient was able to perform all of these activities independently. Over 8 weeks, their appetite improved markedly: EORTC-QLQ-30 (4-point scale): improvement from 4 to 1, and on VAS [0-100 mm], from 13 to 63 before lunch, and from 17 to 70 before dinner. The patient's treating pulmonologist concluded a “miraculous improvement” over the 8-week treatment period. On request of the patient, ATP infusions were continued. Patient 2 (primary liver carcinoma): This patient, who suffered from marked anorexia, spontaneously reported that they were “eating again like a building worker” after 8 weeks of ATP treatment. […] Furthermore, the patient felt less tired within 2 weeks of starting ATP infusions. Patient 3 (melanoma): This patient reported marked improvement in appetite. This was confirmed by outcome assessment (VAS), in addition, marked amelioration in fatigue and self reliance was found. After 8 infusion, the patient pledged to continue the ATP infusions. […] After 5 infusions, the patient decided that they felt so much better that they wanted to continue the infusions after the study. Patient 5 (pancreas cancer; study still ongoing): After 4 infusions, the patient noted to feel much more energetic.

IL-6 = assay: LPS+PHA-induced IL-6 secretion in whole blood under oxidative stress (H2O2); type: cell-based, human; settings: absence or presence of H2O2 (1 and 10 mM)
Method: FIG. 12 Effect of ATP on LPS+PHA-induced IL-6 secretion in whole blood from healthy subjects under conditions of oxidative stress. Two concentrations of H2O2 (1 and 10 mM) were added to whole blood, together with the indicated concentrations of ATP. Then, blood was exposed to 10 μg/ml LPS and 1 μg/ml PHA, and incubated for 24 h. The IL-6 released into the supernatants was analyzed using the ELISA method. […] Data are expressed at the mean values; error bars represent SEM.
Whole blood of healthy subjects was collected as described for Experiment 2, and pre-incubated with 1 or 10 mM H2O2 at 5% CO2 and 37° C. for 15 min. Then, ATP was added to the blood at final concentrations of 1-300 μM for the 30 min incubation step, and then incubated as in Experiment 2 with LPS/PHA for 24 hours.

IL-10 = assay: LPS+PHA-induced IL-10 secretion in whole blood from healthy subjects (ELISA); type: cell-based, human; settings: indicated ATP concentrations, 24 h
Method: FIG. 8 Effect of ATP on LPS+PHA-induced IL-10 secretion in whole blood from healthy subjects. The whole blood was exposed to 10 μg/ml LPS and 1 μg/ml PHA with indicated concentrations of ATP for 24 h. The IL-10 released into the supernatants was analyzed using the ELISA method. Results are expressed in percentage, 100% being the IL-10 release under stimulation by LPS+PHA without ATP. […] Data are expressed as the mean values; error bars represent SEM. *, different from control (stimulation by LPS+PHA without ATP) (P<0.05).
Blood was collected from 8 healthy subjects in heparin containing vacutainer tubes. All incubations were performed in duplicate. ATP was dissolved in RPMI 1640 culture medium, at a final concentration of 1-300 μM, and blood pre-incubated with ATP at 5% CO2 at 37 DC for 30 min. After stimulation with LPS en PHA (10 and 1 μg/ml final concentration, respectively), the plates were incubated in 5% CO2 at 37° C. for 24 h. Cell-free supernatant fluids were then collected by centrifugation (6000 rpm, 10 min at 4° C.) and stored at −20° C. until tested for presence of cytokines. All cytokines were quantified by means of PeliKine Compact human ELISA kits (CLB/Sanquin, The Netherlands), based on appropriate and validated sets of monoclonal antibodies.
Whole blood was collected and stimulated with LPS+PHA as described for Experiment 2. […]

[4] = cited from earlier work
[5] = cited from earlier work; remark: listed apart in the source
[6] = after 10 weekly infusions, 10-15 μg/kg·min

## Nc1ncnc2c1ncn2[C@@H]1O[C@H](COP(=O)(O)OP(=O)(O)OP(=O)(O)O)[C@@H](O)[C@H]1O [ATP, Adenosine 5′-triphosphate]
[1]
  effect on blood sedimentation rate: neither an effect
[2]; after 10 infusions
  joint swelling and pain: markedly decreased
[2]; [6]
  CRP: 6 mg/L
  DAS score: 3.09
[2]; before ATP
  CRP: 43 mg/L
  DAS score: 5.80
[3]; Patient 1, before
  appetite VAS [0-100 mm] before dinner: 17 mm
  appetite VAS [0-100 mm] before lunch: 13 mm
  appetite, EORTC-QLQ-30 (4-point scale): 4
[3]; Patient 1, over 8 weeks of ATP
  appetite VAS [0-100 mm] before dinner: 70 mm
  appetite VAS [0-100 mm] before lunch: 63 mm
  appetite, EORTC-QLQ-30 (4-point scale): 1
[3]; Patient 2, before
  appetite VAS (0-100): 20
[3]; Patient 2, within 4 weeks
  appetite VAS (0-100): 95
[3]; Patient 4, after 4 weeks of ATP infusions
  fatigue, 7-point scale (mean of four items of SFQ): 5.8
[3]; Patient 4, before
  fatigue, 7-point scale (mean of four items of SFQ): 2.8
[3]; patients who had completed >4 ATP infusions
  patients spontaneously reporting marked improvements: 5 out of 19
IL-6
  effect on LPS+PHA-induced IL-6 release: no effect; also recorded: not influenced
IL-10
  effect on LPS+PHA-induced IL-10 release: significantly increased
[4]; Swennen et al. 2004
  effect on plasma levels of pro- or anti-inflammatory cytokines: neither an effect
[4]; regular infusions
  loss of weight and muscle mass compared to a control group: inhibited
[5]; phase I/II, 2 to 3 intravenous courses of 96 hours
  body weight: stabilisation
[5]; phase II, after 4 ATP courses
  average weight gain: 1.3 kg
